Results on 29 compounds are retold here after patent US20090093473A1, “Spiro-benzimidazoles as inhibitors of gastric acid secretion” (priority 2005, published 2009).

What is called melting point is the temperature, or range, at which the solid turns liquid. A word on the inhibition in vivo: it is the relative decrease from the control value, in per cent. A high value points to a strong effect.

SMILES strings stand for the structures.

The test system of data set [1] is pentagastrin-stimulated acid secretion of the perfused rat stomach. As to the kind of experiment: Secretion-inhibiting action on the perfused rat stomach (pentagastrin-stimulated acid secretion). As to conditions: intraduodenal, anesthetized CD rat, dose 1 μmol/kg i.d. In kind it is in vivo. The text has this:
Testing of the Secretion-Inhibiting Action on the Perfused Rat Stomach
In Table A which follows, the influence of the compounds of the formula 1 according to the invention on the pentagastrin-stimulated acid secretion of the perfused rat stomach after intraduodenal administration in vivo is shown.
The abdomen of anesthetized rats (CD rat, female, 200-250 g; 1.5 g/kg i.m. urethane) was opened after tracheotomy by a median upper abdominal incision and a PVC catheter was fixed transorally in the esophagus and another via the pylorus such that the ends of the tubes just projected into the gastric lumen. The catheter leading from the pylorus led outward into the right abdominal wall through a side opening.
After thorough rinsing (about 50-100 ml), warm (37° C.) physiological NaCl solution was conbinuously passed through the stomach (0.5 ml/min, pH 6.8-6.9; Braun-Unita I). The pH (pH meter 632, glass electrode EA 147; φ=5 mm, Metrohm) and, by titration with a freshly prepared 0.01N NaOH solution to pH 7 (Dosimat 665 Metrohm), the secreted HCl were determined in the effluent in each case collected at an interval of 15 minutes.
The gastric secretion was stimulated by continuous infusion of 1 μg/kg (=1.65 mllh) of i.v. pentagastrin (left femoral vein) about 30 min after the end of the operation (i.e. after determination of 2 preliminary fractions). The substances to be tested were administered intraduodenally in a 2.5 ml/kg liquid volume 60 min after the start of the continuous pentagastrin infusion. The body temperature of the animals was kept at a constant 37.8-38° C. by infrared irradiation and heat pads (automatic, stepless control by means of a rectal temperature sensor).

In turn, `CNC(=O)c1cc2c(nc(C)n2C)c2c1CCC1(Cc3ccccc3C1)N2.Cl` had a melting point of 309 to 311 °C.

As to `COCCNC(=O)c1cc2c(nc(C)n2C)c2c1CCC1(Cc3ccccc3C1)N2.Cl`, the melting point lay within 294 to 295 °C.

Take `CCOC(=O)c1cc2c(nc(C)n2C)c2c1CCC1(Cc3ccccc3C1)N2` [Example 1, Ethyl 2,3-dimethyl-1′,3,3′,6,7,9-hexahydrospiro[imidazo[4,5-h]quinoline-8,2′-indene]-5-carboxylate]: the melting point was in the range of 167 to 168 °C.

As for `C=CCn1c(C)nc2c3c(c(C(=O)OC)cc21)CCC1(Cc2ccccc2C1)N3` [Example 2, Methyl 3-allyl-2-methyl-1′,3,3′,6,7,9-hexahydrospiro[imidazo[4,5-h]quinoline-8,2′-indene]-5-carboxylate], the melting point is 142 to 142.5 °C.

Regarding `C=CCn1c(C)nc2c3c(c(C(=O)OCC)cc21)CCC1(Cc2ccccc2C1)N3` [Example 3, Ethyl 3-allyl-2-methyl-1′,3,3′,6,7,9-hexahydrospiro[imidazo[4,5-h]quinoline-8,2′-indene]-5-carboxylate], the melting point came to 150 °C.

Compound `CNC(=O)c1cc2c(nc(C)n2C)c2c1CCC1(Cc3ccccc3C1)N2` [Example 4, N,2,3-Trimethyl-1′,3,3′,6,7,9-hexahydrospiro[imidazo[4,5-h]quinoline-8,2′-indene]-5-carboxamide] displayed a melting point of 237 to 238 °C. The inhibition in vivo at 1 µmol/kg in data set [1] was > 80%.

Consider `Cc1nc2c3c(c(CO)cc2n1C)CCC1(Cc2ccccc2C1)N3` [Example 6, (2,3-Dimethyl-1′,3,3′,6,7,9-hexahydrospiro[imidazo[4,5-h]quinoline-8,2′-inden]-5-yl)-methanol], for which the melting point is 272 to 274 °C.

Turning to `CNC(=O)c1cc2[nH]c(C)nc2c2c1CCC1(Cc3ccccc3C1)N2` [Example 9, N,2-dimethyl-1′,3,3′,6,7,9-hexahydrospiro[imidazo[4,5-h]quinoline-8,2′-indene]-5-carboxamide], the melting point lay in the range of 240 to 241 °C.

Compound `Cc1nc2c3c(c(C(=O)N(C)C)cc2[nH]1)CCC1(Cc2ccccc2C1)N3` [Example 10, N,N,2-Trimethyl-1′,3,3′,6,7,9-hexahydrospiro[imidazo[4,5-h]quinoline-8,2′-indene]-5-carboxamide] gave a melting point of 183 °C.

On to `Cc1nc2c3c(c(C(=O)N(C)C)cc2n1C)CCC1(Cc2ccccc2C1)N3` [Example 11, N,N,2,3-tetramethyl-1′,3,3′,6,7,9-hexahydrospiro[imidazo[4,5-h]quinoline-8,2′-indene]-5-carboxamide], for which the melting point was in the range of 178 to 179 °C. For the same compound, in data set [1], the inhibition in vivo at 1 µmol/kg is > 80%.

`Cc1nc2c3c(c(C(=O)N(C)CCO)cc2n1C)CCC1(Cc2ccccc2C1)N3` [Example 12, N-(2-hydroxyethyl)-N,2,3-trimethyl-1′,3,3′,6,7,9-hexahydrospiro[imidazo[4,5-h]quinoline-8,2′-indene]-5-carboxamide] displayed a melting point of 194 to 195 °C.

In the case of `Cc1nc2c3c(c(C(=O)N4CC(O)C4)cc2n1C)CCC1(Cc2ccccc2C1)N3` [Example 13, 1-[(2,3-dimethyl-1′,3,3′,6,7,9-hexahydrospiro[imidazo[4,5-h]quinoline-8,2′-inden]-5-yl)-carbonyl]azetidin-3-ol], the melting point fell in the range of 171 to 172 °C.

In turn, `CC(=O)CNC(=O)c1cc2c(nc(C)n2C)c2c1CCC1(Cc3ccccc3C1)N2` [Example 14, 2,3-dimethyl-N-(2-oxopropyl)-1′,3,3′,6,7,9-hexahydrospiro[imidazo[4,5-h]quinoline-8,2′-indene]-5-carboxamide] returned a melting point of 222 to 223 °C. Besides, in data set [1], the inhibition in vivo at 1 µmol/kg was > 80%.

Take `Cc1nc2c3c(c(C(=O)N4CC(F)C4)cc2n1C)CCC1(Cc2ccccc2C1)N3` [Example 15, 5-[(3-fluoroazetidin-1-yl)carbonyl]-2,3-dimethyl-1′,3,3′,6,7,9-hexahydrospiro[imidazo[4,5-h]quinoline-8,2′-indene]]: the melting point was 259 to 260 °C. Moreover, in data set [1], the inhibition in vivo at 1 µmol/kg is > 80%.

`COCCNC(=O)c1cc2c(nc(C)n2C)c2c1CCC1(Cc3ccccc3C1)N2` [Example 16, N-(2-methoxyethyl)-2,3-dimethyl-1′,3,3′,6,7,9-hexahydrospiro[imidazo[4,5-h]quinoline-8,2′-indene]-5-carboxamide] yielded a melting point of 186 to 187 °C. Further, the inhibition in vivo at 1 µmol/kg in data set [1] is > 80%.

Consider `Cc1nc2c3c(c(C(=O)NCCO)cc2n1C)CCC1(Cc2ccccc2C1)N3` [Example 17, N-(2-hydroxyethyl)-2,3-dimethyl-1′,3,3′,6,7,9-hexahydrospiro[imidazo[4,5-h]quinoline-8,2′-indene]-5-carboxamide], for which the melting point was in the range of 167 to 168 °C.

`Cc1nc2c3c(c(C(N)=O)cc2n1C)CCC1(Cc2ccccc2C1)N3` [Example 18, 2,3-dimethyl-1′,3,3′,6,7,9-hexahydrospiro[imidazo[4,5-h]quinoline-8,2′-indene]-5-carboxamide] registered a melting point of 272 to 273 °C. In addition, the inhibition in vivo at 1 µmol/kg in data set [1] was > 80%.

`Cc1nc2c3c(c(C(=O)N(C)C[C@H](C)O)cc2n1C)CCC1(Cc2ccccc2C1)N3` [Example 19, N-[(2S)-2-hydroxypropyl]-N,2,3-trimethyl-1′,3,3′,6,7,9-hexahydrospiro[imidazo[4,5-h]-quinoline-8,2′-indene]-5-carboxamide]: the melting point is 258 to 259 °C.

As for `Cc1nc2c3c(c(C(=O)NC[C@H](C)O)cc2n1C)CCC1(Cc2ccccc2C1)N3` [Example 20, N-[(2S)-2-hydroxypropyl]-2,3-dimethyl-1′,3,3′,6,7,9-hexahydrospiro[imidazo[4,5-h]-quinoline-8,2′-indene]-5-carboxamide], the melting point lay in the range of 224 to 225 °C.

`COCCN(C)C(=O)c1cc2c(nc(C)n2C)c2c1CCC1(Cc3ccccc3C1)N2` [Example 21, N-(2-methoxyethyl)-N,2,3-trimethyl-1′,3,3′,6,7,9-hexahydrospiro[imidazo[4,5-h]quinoline-8,2′-indene]-5-carboxamide] registered a melting point of 160 to 161 °C. Moreover, in data set [1], the inhibition in vivo at 1 µmol/kg is > 80%.

Consider `Cc1nc2c3c(c(C(=O)NCCCO)cc2n1C)CCC1(Cc2ccccc2C1)N3` [Example 26, N-(3-hydroxypropyl)-2,3-dimethyl-1′,3,3′,6,7,9-hexahydrospiro[imidazo[4,5-h]quinoline-8,2′-indene]-5-carboxamide], for which the melting point is 237 to 238 °C.

With `CNC(=O)c1cc2c(nc(C)n2C)c2c1CCC1(Cc3ccccc3C1)N2.CS(=O)(=O)O` [Example 28, N,2,3-Trimethyl-1′,3,3′,6,7,9-hexahydrospiro[imidazo[4,5-h]quinoline-8,2′-indene]-5-carboxamide methanesulphonate], the melting point was 321 to 324 °C.

Regarding `CNC(=O)c1cc2c(nc(C)n2C)c2c1CCC1(Cc3ccccc3C1)N2.O=C(O)CC(=O)O` [Example 30, N,2,3-Trimethyl-1′,3,3′,6,7,9-hexahydrospiro[imidazo[4,5-h]quinoline-8,2′-indene]-5-carboxamide malonate], the melting point was in the range of 261 to 263 °C.

With `CCOCCNC(=O)c1cc2c(nc(C)n2C)c2c1CCC1(Cc3ccccc3C1)N2` [Example 31, N-(2-ethoxyethyl)-2,3-dimethyl-1′,3,3′,6,7,9-hexahydrospiro[imidazo[4,5-h]quinoline-8,2′-indene]-5-carboxamide], the melting point was 180 to 181 °C.

`CCNC(=O)c1cc2c(nc(C)n2C)c2c1CCC1(Cc3ccccc3C1)N2` [Example 32, N-ethyl-2,3-dimethyl-1′,3,3′,6,7,9-hexahydrospiro[imidazo[4,5-h]quinoline-8,2′-indene]-5-carboxamide]: the melting point lay in the range of 223 to 224 °C.

`COCCNC(=O)c1cc2c(nc(C)n2C)c2c1CCC1(Cc3ccccc3C1)N2.O=C(O)/C=C\C(=O)O` [Example 33, N-(2-methoxyethyl)-2,3-dimethyl-1′,3,3′,6,7,9-hexahydrospiro[imidazo[4,5-h]quinoline-8,2′-indene]-5-carboxamide maleate]: the melting point fell in the range of 191 to 192 °C.

Compound `COCCNC(=O)c1cc2c(nc(C)n2C)c2c1CCC1(Cc3ccccc3C1)N2.O=C(O)CC(=O)O` [Example 34, N-(2-methoxyethyl)-2,3-dimethyl-1′,3,3′,6,7,9-hexahydrospiro[imidazo[4,5-h]quinoline-8,2′-indene]-5-carboxamide malonate] registered a melting point of 176 to 177 °C.

`Cc1nc2c3c(c(C(=O)NC4CC4)cc2n1C)CCC1(Cc2ccccc2C1)N3.O=C(O)C(=O)O` [Example 36, N-cyclopropyl-2,3-dimethyl-1′,3,3′,6,7,9-hexahydrospiro[imidazo[4,5-h]quinoline-8,2′-indene]-5-carboxamide oxalate] had a melting point of 242 to 243 °C.

Compound `CS(=O)(=O)O.Cc1nc2c3c(c(C(=O)NC4CC4)cc2n1C)CCC1(Cc2ccccc2C1)N3` [Example 37, N-cyclopropyl-2,3-dimethyl-1′,3,3′,6,7,9-hexahydrospiro[imidazo[4,5-h]quinoline-8,2′-indene]-5-carboxamide methanesulphonate] gave a melting point of 308 to 309 °C.
